The values below come from patent US11484529B2, “Desmethylanethole trithione derivatives for the treatment of diseases linked to mitochondrial reactive oxygen species (ROS) production” (OP2 Drugs, priority 2017, dated 2022).

One test relates to MPTP-treated mice. Nature of the test: Sub-chronic MPTP mouse model of Parkinson's disease, TH-positive neurons in the substantia nigra. Type of test: in vivo. Conditions: AOL 5 mg/kg i.p., 11 consecutive days; p<0.01. As for the experimental part:
In this study, the potential neuroprotective effects of AOL were assessed by counting the number of tyrosine hydroxylase (TH)-positive neurons in the substantia nigra (SN) in the sub-chronic 1-methyl-4-phenyl-1,2,3,6-tetrahydropyridine (MPTP) mouse model of Parkinson's disease. Mice were treated with AOL (5 mg/kg; i.p.) or vehicle for 11 consecutive days. MPTP (20 mg/kg; i.p.) or saline was administered on treatment days 4-8. All mice were killed on day 12 following final administration of treatment.
For vehicle conditions, the test item was dissolved in 0.5% DMSO/0.95% Tween 20 in saline while AOL was administered intraperitoneally (i.p.) at the dose of 5 mg/kg. […]
Unbiased stereological analysis was used to estimate the number of TH-immunopositive (TH+) neurons (Mercator, Explora Nova, La Rochelle, France). The boundaries of the SN were determined by examining the size and shape of the different TH+ neuronal groups. The volume was calculated by using the formula: V=ΣS td; where ΣS is the sum of surface areas, t is the average section thickness and d is the number of slices between two consecutive sections measured. […] The following formula was used to estimate the number of TH+ neurons: N=V(SN) (ΣQ−/ΣV(dis)); where N is the estimation of cell number, V is the volume of the SN, ΣQ− is the number of cells counted in the dissectors, and ΣV(dis) is the total volume of all the dissectors. […]

Test [1] relates to isolated pancreatic islets from mice. Kind of test: Glucose-stimulated insulin secretion (GSIS) in isolated pancreatic islets. It is filed as cell-based, mouse. Conditions: AOL 10 and 20 μM, 1 hour. As for the experimental part:
Pancreatic islets were isolated using the collagenase digestion method. Briefly, pancreas was inflated with Hanks solution containing 0.33 mg/mL of collagenase (Sigma-Aldrich), 5.6 mM glucose and 1% bovine serum albumin, pH 7.35, removed and kept at 37° C. for 6-9 minutes. After tissue digestion and exocrine removal by three consecutive washes, the islets were manually collected, under a binocular magnifier. Islets were left recovering from digestion by culturing for 20-24 hours in RPMI-1640 medium containing 11 mM glucose (Invitrogen, CA, USA) and supplemented with 2 mM glutamine, 200 IU/mL penicillin, 200 μg/mL streptomycin and 8% fetal bovine serum stripped with charcoal-dextran (Invitrogen).
For each static GSIS experiment, islets from two mice were first incubated for 2 hours at 37° C. in 3 mL Krebs-bicarbonate buffer solution (in mM): […] and 3 glucose, equilibrated with a mixture of 95% 02:5% C02, pH 7.4. […] Insulin secretion in each well was calculated as ng of insulin per islet and per hour of incubation, and then expressed as percentage of insulin secretion in 11 mM glucose vehicle group, which was considered 100%.

A further test deals with H460 carcinoma cells. Kind of test: Transwell cell migration (metastatic activity). It is filed as cell-based, human. Particulars: AOX 5 and 10 μM, 16 hours. As for the experimental part: Cell migration assays were performed in Transwells (Corning Inc., 8.0-μm pore size). For migration assay, 2·10^4 cells in serum-free medium were added to the upper wells. Media containing 10% FBS were added to the lower wells. Cells that migrated through the filter after 16 hours were stained with 0.2% crystal violet and counted using the software Image J.
The Transwell test of cell migration has been utilized for this assay and the migration of H460 carcinoma cells has been measured in the presence of two different concentrations of AOX (5 and 10 μM) and compared to the effect of 100 μM N-acetyl cystein (NAC) as a positive control of cytosolic ROS production (FIG. 25).

For the molecule `COc1ccc(-c2cc(=S)ss2)cc1` [AOL, 5-(4-methoxyphenyl)-3H-1,2-dithiole-3-thione], the “increase of the number of TH+ cells in the SN compared to vehicle in MPTP-treated mice” value in the test on MPTP-treated mice is 44%. The “GSIS increase as compared to the 11 mM glucose vehicle group” value in test [1] was 65-75%.

For `Oc1ccc(-c2cc(=S)ss2)cc1` [AOX, 5-(4-hydroxyphenyl)-3H-1,2-dithiole-3-thione], the “metastatic activity (cells crossing the membrane)” value with H460 carcinoma cells is given as “absence of induction of metastatic activity”.
